In patent US20230398099A1, “METHODS OF TREATING CONDITIONS RELATED TO THE S1P1 RECEPTOR” (Arena Pharmaceuticals, Inc., priority 2020, published 2023):
Where two headings read alike, the source gives them in different places.

Experiments:
[1] = test system: OVA-induced acute asthma model in mice; experiment: ovalbumin (OVA)-induced acute asthma model; format: in vivo, mouse; conditions: QD Day 12-15; for immune cells in bronchoalveolar lavage (BAL): FIG. 9
Experimental: The OVA model is a widely used pre-clinical allergic asthma model and recapitulates many of the hallmarks of allergic asthma in humans. These include elevated IgE and TH2 related cytokines, mucus hypersecretion, airway inflammation, goblet cell hyperplasia, epithelial hypertrophy, and airway hyperreactivity to stimuli.
Mice were sensitized with an intraperitoneal (IP) injection of OVA and adjuvant on days 0 and 7. Mice were then challenged with intranasal delivery of OVA (10-200 μg) in saline on days 13-15 with endpoints conducted on day 16. Endpoints in this model generally included total and differential cell counts as well as inflammatory mediator content in the broncho-alveolar lavage fluid, airway hyperreactivity and detailed lung mechanics measured with the flexiVent™ rodent mechanical ventilator as well as histopathology and immunohistochemistry on lung sections.

hS1P1 = hS1P1 (Homo sapiens, UniProt P21453); experiment: S1P1 GTPgS binding assay; format: biochemical; conditions: for EC50: S1P1 GTPgS binding, EC50 [95% confidence interval] (n)
hS1P1, sequence (P21453 whole entry): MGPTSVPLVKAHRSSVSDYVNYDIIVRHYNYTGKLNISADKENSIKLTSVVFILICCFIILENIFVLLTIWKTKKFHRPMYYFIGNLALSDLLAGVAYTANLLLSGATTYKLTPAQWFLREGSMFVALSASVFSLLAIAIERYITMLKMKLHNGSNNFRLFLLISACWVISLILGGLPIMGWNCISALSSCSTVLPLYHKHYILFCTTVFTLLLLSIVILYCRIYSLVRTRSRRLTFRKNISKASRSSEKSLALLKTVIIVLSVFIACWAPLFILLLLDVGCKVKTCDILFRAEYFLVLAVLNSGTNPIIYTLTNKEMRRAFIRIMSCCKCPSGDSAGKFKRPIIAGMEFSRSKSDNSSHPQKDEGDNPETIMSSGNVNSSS

hS1PR4 = biological target: T1, hS1PR4 (Homo sapiens, UniProt O95977); experiment: b-arrestin recruitment assay; format: cell-based; conditions: for EC50: EC50 [95% confidence interval] (n)
T1 sequence (O95977 1-384): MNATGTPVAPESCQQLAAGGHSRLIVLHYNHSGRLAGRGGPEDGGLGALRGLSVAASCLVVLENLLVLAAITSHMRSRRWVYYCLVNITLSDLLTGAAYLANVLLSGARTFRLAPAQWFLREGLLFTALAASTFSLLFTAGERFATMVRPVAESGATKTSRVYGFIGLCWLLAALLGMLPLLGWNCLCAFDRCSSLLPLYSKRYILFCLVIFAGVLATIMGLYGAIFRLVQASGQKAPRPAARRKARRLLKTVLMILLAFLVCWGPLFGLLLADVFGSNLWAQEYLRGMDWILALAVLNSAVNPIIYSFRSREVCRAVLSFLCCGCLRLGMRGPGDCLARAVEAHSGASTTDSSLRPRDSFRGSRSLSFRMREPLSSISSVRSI

hS1PR5 = hS1PR5 (Homo sapiens, UniProt Q9H228); experiment: b-arrestin recruitment assay; format: cell-based; conditions: for EC50: EC50 [95% confidence interval] (n)
hS1PR5, sequence (Q9H228 whole entry): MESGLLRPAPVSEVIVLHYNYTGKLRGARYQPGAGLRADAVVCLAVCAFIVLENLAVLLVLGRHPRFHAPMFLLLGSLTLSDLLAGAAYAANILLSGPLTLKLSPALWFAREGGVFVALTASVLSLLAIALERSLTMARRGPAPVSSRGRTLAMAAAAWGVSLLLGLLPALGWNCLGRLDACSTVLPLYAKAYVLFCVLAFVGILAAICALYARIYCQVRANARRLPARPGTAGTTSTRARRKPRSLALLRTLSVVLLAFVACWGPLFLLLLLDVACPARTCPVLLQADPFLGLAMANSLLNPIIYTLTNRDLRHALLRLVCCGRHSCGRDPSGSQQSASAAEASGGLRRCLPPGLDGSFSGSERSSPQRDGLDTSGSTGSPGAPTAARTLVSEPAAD

[2] = test system: FITC-induced contact hypersensitivity (CHS)/dermatitis in BALB/c mice; experiment: mouse model of FITC-induced contact dermatitis; format: in vivo; conditions: for skin thickening (ear thickening): FIG. 8
Source text: Fluorescein isothiocyanate isomer I (FITC) was used to induce contact hypersensitivity (CHS)/dermatitis in BALB/c mice by administering two sensitizing applications of the hapten onto the shaved flanks of the animals on Days 0 and 5, followed by three days of FITC challenge on the dorsal surface of both ears on Days 10-12. […] Treatment was initiated on Day −1 to model prophylactic treatment.

S1P2 Receptor = S1P2 Receptor (Homo sapiens, UniProt O95136); experiment: S1P2 receptor internalization; format: cell-based; conditions: N 5
S1P2 Receptor, sequence (O95136 whole entry): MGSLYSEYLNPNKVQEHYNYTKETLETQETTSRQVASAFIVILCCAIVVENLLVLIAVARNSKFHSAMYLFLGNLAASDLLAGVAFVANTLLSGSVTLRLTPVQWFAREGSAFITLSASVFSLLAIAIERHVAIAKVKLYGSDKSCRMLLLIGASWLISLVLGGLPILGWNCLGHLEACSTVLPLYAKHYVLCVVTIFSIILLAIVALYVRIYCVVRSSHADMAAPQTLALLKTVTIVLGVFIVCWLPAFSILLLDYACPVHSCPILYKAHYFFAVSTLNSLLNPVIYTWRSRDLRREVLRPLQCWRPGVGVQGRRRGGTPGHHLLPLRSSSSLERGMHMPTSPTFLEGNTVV

hS1PR1 = hS1PR1 (Homo sapiens, UniProt P21453); experiment: b-arrestin recruitment assay; format: cell-based; conditions: for EC50: b-arrestin recruitment, hS1PR1, EC50 [95% confidence interval] (n)
hS1PR1, sequence (P21453 whole entry): as the sequence (P21453 whole entry) above

hS1PR2 = hS1PR2 (Homo sapiens, UniProt O95136); experiment: b-arrestin recruitment assay; format: cell-based
hS1PR2, sequence (O95136 whole entry): as the sequence (O95136 whole entry) above

hS1PR3 = hS1PR3 (Homo sapiens, UniProt Q99500); experiment: b-arrestin recruitment assay; format: cell-based
hS1PR3, sequence (Q99500 whole entry): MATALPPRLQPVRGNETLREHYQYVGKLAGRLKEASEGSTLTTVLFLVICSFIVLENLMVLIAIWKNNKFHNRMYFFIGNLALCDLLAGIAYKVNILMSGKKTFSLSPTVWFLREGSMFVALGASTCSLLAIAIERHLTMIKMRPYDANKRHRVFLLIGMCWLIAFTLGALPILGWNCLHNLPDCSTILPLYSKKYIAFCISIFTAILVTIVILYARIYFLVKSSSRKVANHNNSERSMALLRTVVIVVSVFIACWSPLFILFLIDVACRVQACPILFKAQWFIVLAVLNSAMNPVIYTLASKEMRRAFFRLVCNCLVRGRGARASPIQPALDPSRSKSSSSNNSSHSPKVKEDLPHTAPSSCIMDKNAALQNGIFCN

[3] = 1 mg/kg daily oral, compared to vehicle, dose-dependent, FIG. 6
[4] = 1 mg/kg daily oral, compared to vehicle, dose-dependent, FIG. 7

| Structure (SMILES) | Emax (hS1P1) | EC50 (hS1P1) | EC50 (hS1PR4; b-arrestin recruitment, hS1PR4) | Emax (hS1PR4; read-out: Emax) | EC50 (hS1PR5; b-arrestin recruitment, hS1PR5) | Emax (hS1PR5; read-out: Emax) | Efficacy, % of S1P (S1P2 Receptor) | Emax (hS1PR1) | EC50 (hS1PR1) | also measured |
| --- | --- | --- | --- | --- | --- | --- | --- | --- | --- | --- |
| CC(C)Cc1ccc(-c2nc(-c3ccc(CN4CC(C(=O)O)C4)c(F)c3)no2)cc1 [Compound 1, 1-{2-fluoro-4-[5-(4-isobutylphenyl)-1,2,4-oxadiazole-3-yl]benzyl}-3-azetidinecarboxylic acid] | 98% | 1.8 nM | 3.2 nM | 104% | 0.71 nM | 120% | 65% | 128% | 6.2 nM | immune cells in bronchoalveolar lavage (BAL) ([1]; 0.1 mg/kg PO): did not have significant effect; immune cells in bronchoalveolar lavage (BAL) ([1]; 1 mg/kg PO): did not have significant effect; lung function measured by airway resistance or elastance ([1]; PO, Methacholine challenge, FIG. 10): no significant effect; skin thickening (ear thickening) ([2]; 0.1 mg/kg daily oral): had no effect; B cells in the skin [2, 3]: reduced; T cells in the skin [2, 3]: reduced; WBC count [2, 4]: reduced; lymphocyte frequency [2, 4]: reduced; skin thickening (ear thickening) ([2]; 1 mg/kg daily oral): reduced skin thickening; EC50 (S1P2 Receptor): 2510 nM |
| CCCCCCCCCCCCC/C=C/[C@@H](O)[C@@H](N)COP(=O)(O)O [Compound S1P, sphingosine-1-phosphate] | 102% | 77 nM | 0.99 nM | 117% |  | 114% | 100% | 113% | 18.3 nM | Emax (hS1PR2): 108%; Emax (hS1PR3): 113%; EC50 (hS1PR3; b-arrestin recruitment, hS1PR3, EC50 [95% confidence interval] (n)): 13.9 nM |
| CCCCCCCCc1ccc(CC[C@](N)(CO)COP(=O)(O)O)cc1 [Fingolimod(P)] |  |  | 0.76 nM |  |  |  | 80% |  |  | Emax (hS1PR4; b-arrestin recruitment, hS1PR4, % relative to S1P): 94%; Emax (hS1PR5; b-arrestin recruitment, hS1PR5, % relative to S1P): 62% |
| CC(C)Oc1ccc(-c2nc(-c3cccc4c3CC[C@@H]4NCCO)no2)cc1C#N [Ozanimod] | 104% |  | 117 nM | 93% | 7.3 nM | 117% |  | 130% |  |  |
